Measured values: patent EP0873131B1, “PROCESSES FOR PREPARATION OF RG3 AND RG5 GINSENOSIDES” (Cheil Je Dang Co., priority 1995, dated 1997)

How the values were obtained:
[1] = test system: aortic rings; assay: Vasodilation of phenylephrine-contracted rat thoracic aortic rings (organ chamber, isometric tension); design: species or system Sprague-Dawley(SD) rats; details: for effect to the blood vessel without endothelium / relaxation to the blood vessel with endothelium: aortic rings contracted by 10^-6M phenylephrine; for effect to the blood vessel without endothelium: endothelium removed mechanically; for relaxation to the blood vessel with endothelium: substance alone; for relaxation to the blood vessel with endothelium / vasodilation in the presence of methylene blue(MB) / vasodilation in the presence of nitro-L-arginine(NLA): with endothelium; for vasodilation in the presence of methylene blue(MB): together with 10^-6M methylene blue(MB), an inhibitor of soluble guanylate cyclase; for vasodilation in the presence of nitro-L-arginine(NLA): together with 10^-6M nitro-L-arginine(NLA), an inhibitor of nitric oxide synthase
Procedure: Sprague-Dawley(SD) rats weighing 300-400g were sacrificed and their thoracic aortae were removed quickly, and then placed in a Krebs-Ringer-sodium bicarbonate solution (control solution, NaCl 118.3; KCl 4.7; MgSO4 1.2; KH2PO4 1.2; CaCl2 2.5; NaHCO3 25.0; CaEDTA 0.016 and glucose 11.1mM). Blood within the aortae, adipose and connective tissues surrounding the blood vessel were removed and then the clean aortae were cut down to prepare the aortic rings having 2-3mm length. The aortic rings were suspended vertically in an organ chamber filled with 25ml of control solution (pH 7.4). In some aortic rings, the endothelium was removed mechanically by rolling the rings 7 to 8 times on a tissue towel with pincette. The bottom of aortic ring was fixed to the organ chamber and the top thereof was connected to a transducer coupler through stirrups for recording of isometric tension.
To the aortic rings showing a stable contraction induced by addition of 10^-6M phenylephrine to the organ chamber was added ginsenoside Rg3 or Rg5-dimethylsulfoxide solution alone or together with 10^-6M methylene blue(MB) or 10^-6M nitro-L-arginine(NLA) in order to observe the vasodilation thereof. The degree of contraction by 10^-6M phenylephrine was set to 100% and the degree of relaxation caused by ginsenoside Rg3 or Rg5 was represented as percent(%) with respect thereto.
Vasodilation of the processed panaxadiol saponin fraction obtained in Example 7 as mentioned above was determined according to the same experimental procedure as Test Example 1.

[2] = test system: Human umbilical vein endothelium cells(HUVEC); assay: Cytotoxicity to HUVEC cells (MTT, 48 hours); assay type: cell-based; details: for cytotoxicity: compared with solvent alone (Rg3: dimethylsulfoxide; Rg5: distilled water)
Procedure: Human umbilical vein endothelium cells(HUVEC) cultured in M199 medium were suspended in physiological saline to a concentration of 20000 cells/180µl. The cell suspension was introduced into each well of 96-well plate in an amount of 180µl, and then 20µl of dimethylsulfoxide as a solvent or the same volume of Rg3 dissolved in dimethylsulfoxide was added thereto. The plate was incubated for 48 hours in a cell-incubator of 37°C while keeping 5% CO2. Then, 50µl of MTT(3-(4,5-dimethyl-thiazol-2'-yl)-2,5-diphenyltetrazolium bromide) dissolved in phosphate buffered solution in a concentration of 2mg/ml was added thereto and incubated again for 4 hours under the same condition as mentioned above. Thereafter, the supernatant was removed and 200µl of dimethylsulfoxide was added to measure the absorbance at 540nm. The absorbance measured was converted into cell number to determine IC50 of dimethylsulfoxide solvent and Rg3 which is the concentration to inhibit the cell growth by 50% and can be used as an index of cytotoxicity.
Human umbilical vein endothelium cells(HUVEC) cultured in M199 medium were suspended in physiological saline to a concentration of 20000 cells/180µl. The cell suspension was introduced into each well of 96-well plate in an amount of 180µl, and then 20µl of distilled water as a solvent or the same volume of Rg5 dissolved in distilled water was added thereto. The plate was incubated for 48 hours in a cell-incubator of 37°C while keeping 5% CO2. Then, 50µl of MTT(3-(4,5-dimethyl-thiazol-2'-yl)-2,5-diphenyltetrazolium bromide) dissolved in phosphate buffered solution in a concentration of 2mg/ml was added thereto and incubated again for 4 hours under the same condition as mentioned above. Thereafter, the supernatant was removed and 200µl of dimethylsulfoxide was added to measure the absorbance at 540nm.

Row | Compound | effect to the blood vessel without endothelium [1] | relaxation to the blood vessel with endothelium [1] | vasodilation in the presence of methylene blue(MB) [1] | vasodilation in the presence of nitro-L-arginine(NLA) [1] | cytotoxicity [2] | IC50 (concentration to inhibit the cell growth by 50%) ([2]; dissolved in dimethylsulfoxide) [µg/mL]
1 | CC(C)=CC/C=C(\C)[C@H]1CC[C@]2(C)[C@@H]1[C@H](O)C[C@@H]1[C@@]3(C)CC[C@H](O[C@@H]4O[C@H](CO)[C@@H](O)[C@H](O)[C@H]4O[C@@H]4O[C@H](CO)[C@@H](O)[C@H](O)[C@H]4O)C(C)(C)[C@@H]3CC[C@]12C [ginsenoside Rg5] | no effect | concentration-dependent relaxation | significantly inhibited | significantly inhibited | no cytotoxicity | 
2 | ginsenoside Rg3 | no effect | concentration-dependent relaxation | significantly inhibited | significantly inhibited | lower cytotoxicity than the solvent | 26.7
